# Where “and” joins values, the source holds several entries; their conditions need not be identical. Identical values can stand only once.
# Assays:
# [1] = tested on: Brassica oleracea cv Botrytis (temperate cauliflower) seeds; assay: Paper germination test, temperate cauliflower seeds, 10° C. in the light; assay type: in vivo; conditions: 25 μM, sets A and B separate experiments
# Procedure: The effect of compounds of Formula (I) on the germination of Brassica oleracea cv Botrytis or common cauliflower was tested on two types of cauliflowers: temperate types and tropical types. These two types were chosen because they display different sensitivities to the light conditions and temperature during germination. Germination of a sensitive temperate type is inhibited by light at 10° C. while for the tropical types germination at 20° is stimulated by the presence of light.
# The temperate seed batches tested are part of commercially produced seed batches of various varieties which are known to be sensitive to light at 10° C. These seeds were harvested and cleaned according standard commercial procedures. Ready seed batches were used (Ready indicates the processing level of these seeds: they have been cleaned and sized but received no other treatments). The tropical seed batches tested are part of seed batches produced as basic seed (for maintenance of the parental line) and were processed accordingly.
# Germination was assessed using the standard paper germination test for Brassica: Fifty seeds were placed on blue germination paper, which was moistened with the appropriate solutions, in closed oblong germination boxes. Each condition was tested in duplo. Germination boxes were placed in controlled germination cabinets with the appropriate temperature and light conditions. Germination of seeds was counted at regular intervals. Seeds were considered to be germinated when the radical had protruded the testa and endosperm (radical size approximately 1 mm)
# Test compounds were dissolved in DMSO at a concentration of 50 mM and stored at −20° C. The strigolactone analogue GR24 (commercially available as a racemic mixture of 2 diastereoisomers, referred to as “synthetic strigolactone GR-24” and first prepared by Johnson A. W. & all, Journal of the Chemical Society, Perkin Transactions 1, 1981, page 1734-1743) was included as positive control. Germination solutions were prepared by diluting the stock solutions with demineralized water till 25 μM. As control solutions demineralized water and a 0.05% v/v DMSO solution were used.
# [2] = tested on: Orobanche cumana Wallr. seeds; assay: Germination of preconditioned Orobanche cumana seeds on glass fiber filter paper in petri dishes; assay type: in vivo; conditions: mean, N = 5 × 100 seeds, seed lot IN153
# Procedure: The effect of compounds of Formula (I) on germination of Orobanche cumana Wallr. seeds was evaluated on glass fiber filter paper (GFFP) in petri dishes. Seeds were preconditioned at moisture and suitable temperature to become responsive to the specific chemical germination stimulants.
# Test compounds were dissolved in DMSO (10 000 mg l^−1) and stored at room temperature in a desiccators with desiccants. The stock solutions were dissolved with deionised water to the appropriate final test concentration.
# Seeds of O. cumana race ‘F’ (IN153) were collected from a sunflower field in Manzanilla (Seville, Spain) in 2006 and stored at room temperature. To separate seeds from heavy organic debris, a modified sucrose floatation technique as described by Hartman & Tanimonure (Plant Disease (1991), 75, p. 494) was applied. Seeds were filled into a separation funnel and stirred in water. When seeds floated to the surface, the water fraction containing heavy debris was discarded. Seeds were re-suspended in 2.5M sucrose solution (specific gravity of 1.20) and heavy debris was allowed to settle down for 60 min After removing debris, seeds were disinfected in 1% sodium hypochlorite solution and 0.025% (v/v) Tween 20 for 2 min. The seeds were decanted onto two layers of cheesecloth, rinsed with sterile deionised water and re-suspended in sterile deionised water. Two ml of the seed suspension containing approximately 150-400 seeds were spread evenly on two layers of sterile glass fiber filter paper disc ([…]) in Petri dishes (Ø9 cm). After wetting the discs with 3 ml sterile deionised water, petri dishes were sealed with parafilm. Seeds were incubated for 10 days at 20° C. in the dark for seed conditioning. The upper disc with conditioned seeds was briefly dried, transferred to a petri dish lined with a dry GFFP disc, and wetted with 6 ml of the appropriate test solution. The compounds of Formula (I) were tested at concentrations of 0.001, 0.01, 0.1, or 1 mg l^−. The strigolactone analogue GR24 was included as positive control and 0.01% DMSO as negative control. All treatments were tested in five replicates. Seeds were re-incubated at 20° C. in the dark and examined for germination 10 days later. The radicles of germinated seeds were stained for 5 min with blue ink (MIGROS, Switzerland) in 5% acetic acid according to Long et al. (Seed Science Research (2008), 18, p. 125). After staining, seeds were photographed using a camera stand mounted with a digital SLR camera (Canon EOS 5D). Germination of 100 seeds per replicate was evaluated on digital images. Seeds were considered germinated when the radicle protruded from the seed coat.
# [3] = temperate cauliflower Spacestar seed batch 11B313 (cold-sensitive)
# [4] = temperate cauliflower Spacestar seed batch 11B314 (not cold sensitive)
# [5] = Table B1, concentration 0.001 mg 1^−1, DMSO control 0.4% germination
# [6] = Table B1, concentration 0.1 mg 1^−1, DMSO control 0.4% germination
# [7] = Table B1, concentration 1 mg 1^−1, DMSO control 0.4% germination
structure (smiles),measurement,setting,value
"CC1=C[C@H](O/C=C2/C(=O)O[C@@H]3c4ccccc4C[C@H]23)OC1=O (mixture of isomers) [GR-24, reference compound]","Gmax (%), total germination as percentage of sown seeds",[1]; [3],71.5% and 80.0%
same,"Gmax (%), total germination as percentage of sown seeds",[1]; [4],93.5% and 93.0%
same,"stimulation (%), extra germination compared to the DMSO treatment, as percentage of the germination in the DMSO treatment",[1]; [4],3.3% and 8.1%
same,Germination (%),"[2]; Concentration 0.01 mg l^-1, 10 days at 20° C. in the dark",88%
same,Germination (%),"[2]; Concentration 0.01 mg l^-1 as printed, 10 days at 20° C. in the dark",86.6%
same,Germination (%),"[2]; Concentration 1 mg l^-1, 10 days at 20° C. in the dark",95.2%
same,Germination (%),[2]; [5],24.8%
same,Germination (%),[2]; [6],47.2%
same,Germination (%),[2]; [7],80.2%
same,Germination (%),"[2]; Table B2, concentration 0.01 mg 1^−1, DMSO control 2.4% germination",12.2%
same,Germination (%),"[2]; Table B2, concentration 0.1 mg 1^−1, DMSO control 2.4% germination",46.4%
same,Germination (%),"[2]; Table B2, concentration 1 mg 1^−1, DMSO control 2.4% germination",85.2%
same,Germination (%),"[2]; Table B3, concentration 0.001 mg 1^−1, DMSO control 0% germination",26%
same,Germination (%),"[2]; Table B3, concentration 0.01 mg 1^−1, DMSO control 0% germination",51%
same,Germination (%),"[2]; Table B3, concentration 0.1 mg 1^−1, DMSO control 0% germination",84.2%
same,Germination (%),"[2]; Table B5, concentration 0.01 mg 1^−1 (second column), DMSO control 1.4% germination",78.4%
same,Germination (%),"[2]; Table B5, concentration 0.01 mg 1^−1 (third column), DMSO control 1.4% germination",65%
same,Germination (%),"[2]; Table B5, concentration 1 mg 1^−1, DMSO control 1.4% germination",86.6%
same,Germination (%),"[2]; Table B6, concentration 0.001 mg 1^−1, DMSO control 2.4% germination",23.0%
same,Germination (%),"[2]; Table B6, concentration 0.1 mg 1^−1, DMSO control 2.4% germination",43.2%
same,Germination (%),"[2]; Table B6, concentration 1 mg 1^−1, DMSO control 2.4% germination",58.1%
"CC1=CC(O/C=C2\CCCCN(c3ccccc3)C2=O)OC1=O (centres unmarked) [Ic-13, (3E)-3-[(4-methyl-5-oxo-2H-furan-2-yl)oxymethylene]-1-phenyl-azepan-2-one]",melting point,,150 to 160 °C
"CC1=CC(O/C=C2/C(=O)NC3C=CCC23)OC1=O (centres unmarked) [Ia-1, (3E)-3-[(4-methyl-5-oxo-2H-furan-2-yl)oxymethylene]-1,3a,4,6a-tetrahydrocyclopenta[b]pyrrol-2-one]","Gmax (%), total germination as percentage of sown seeds",[1]; [3],72.0%
same,"stimulation (%), extra germination compared to the DMSO treatment, as percentage of the germination in the DMSO treatment",[1]; [3],20.0%
same,"Gmax (%), total germination as percentage of sown seeds",[1]; [4],96.5%
same,"stimulation (%), extra germination compared to the DMSO treatment, as percentage of the germination in the DMSO treatment",[1]; [4],6.6%
same,Germination (%),[2]; [5],1.4%
same,Germination (%),[2]; [6],24.6%
same,Germination (%),[2]; [7],23.2%
